Measurements as given in US20200247800A1, “SUBSTITUTED BICYCLIC HETEROCYCLIC COMPOUNDS AS NADPH OXIDASE INHIBITORS” (Glenmark Pharmaceuticals S.A., priority 2017, published 2020).

Target: T1, human NOX4 (Homo sapiens, UniProt Q9NPH5)
T1 construct: expressed in transfected cells; membrane fraction used
T1 sequence (Q9NPH5 1-578): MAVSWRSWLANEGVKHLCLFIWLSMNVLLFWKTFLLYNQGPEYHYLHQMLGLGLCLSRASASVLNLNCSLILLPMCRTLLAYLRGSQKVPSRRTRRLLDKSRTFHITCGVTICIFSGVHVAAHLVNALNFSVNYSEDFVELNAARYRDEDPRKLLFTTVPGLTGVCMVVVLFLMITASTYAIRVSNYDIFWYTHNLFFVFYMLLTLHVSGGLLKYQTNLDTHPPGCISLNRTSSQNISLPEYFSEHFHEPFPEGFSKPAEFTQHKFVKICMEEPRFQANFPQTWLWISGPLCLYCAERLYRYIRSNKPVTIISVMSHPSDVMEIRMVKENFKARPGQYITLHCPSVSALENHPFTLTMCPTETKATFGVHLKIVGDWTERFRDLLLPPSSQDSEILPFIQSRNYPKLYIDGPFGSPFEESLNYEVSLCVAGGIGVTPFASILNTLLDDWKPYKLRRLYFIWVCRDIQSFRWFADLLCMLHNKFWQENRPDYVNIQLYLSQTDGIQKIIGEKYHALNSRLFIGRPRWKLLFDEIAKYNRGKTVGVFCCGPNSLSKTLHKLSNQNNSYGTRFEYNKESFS
T1 sequence (P13498 1-195 partner): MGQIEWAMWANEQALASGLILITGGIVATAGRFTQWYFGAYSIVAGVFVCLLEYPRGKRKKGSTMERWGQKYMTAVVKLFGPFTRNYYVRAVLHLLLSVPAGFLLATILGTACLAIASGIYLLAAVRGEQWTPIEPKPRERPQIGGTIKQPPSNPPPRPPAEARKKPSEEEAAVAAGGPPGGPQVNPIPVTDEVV
Assay: Cell free membrane based in vitro NOX4 assay: H2O2 production by membranes expressing human NOX4, measured with Amplex Red
Assay type: biochemical
Details: for inhibition at 1 µM: 1.0 μM compound, read-out: Percentage inhibition at 1.0 μM; for inhibition at 10 µM: 10.0 μM compound, read-out: Percentage inhibition at 10.0 μM; for IC50: class symbols
Summary of the method: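 IC50 came from concentration-response curves fitted as % of the inhibitor-free maximum. H2O2 formation was monitored for 10 min via Amplex Red/HRP fluorescence (544/590 nm) after NADPH start. Membranes from a stable hNOX4/HEK line had 20 min exposure to inhibitor beforehand at pH 7.4.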

| SMILES | inhibition at 1 µM [%] | inhibition at 10 µM [%] | IC50 [nM] |
| --- | --- | --- | --- |
| O=c1c(O)c(-c2c(F)cccc2F)[nH]c2c1c(CO)nn2CC1CCOCC1 [Example 215, 6-(2,6-difluorophenyl)-5-hydroxy-3-(hydroxymethyl)-1-((tetrahydro-2H-pyran-4-yl)methyl)-1H-pyrazolo[3,4-b]pyridin-4(7H)-one] | 78.8 | 87.3 | 100 to 150 |
| Cc1nn(C)c2[nH]c(-c3ccc(C(F)(F)F)cc3F)c(O)c(=O)c12 [Example 21, 6-[2-Fluoro-4-(trifluoromethyl)phenyl]-5-hydroxy-1,3-dimethyl-1,7-dihydro-4H-pyrazolo[3,4-b]pyridin-4-one] | 100 | 100 | > 150 |
| CCc1nn(CCN2C[C@@H](C)O[C@@H](C)C2)c2[nH]c(-c3ccccc3Cl)c(O)c(=O)c12 [Example 202, 6-(2-Chlorophenyl)-1-(2-((2R,6S)-2,6-dimethylmorpholino)ethyl)-3-ethyl-5-hydroxy-1H-pyrazolo[3,4-b]pyridin-4(7H)-one] | 82.8 | 78 | 100 to 150 |
| CCc1nn(CC)c2[nH]c(-c3c(F)cccc3F)c(O)c(=O)c12 [Example 103, 6-(2,6-Difluorophenyl)-1,3-diethyl-5-hydroxy-1,7-dihydro-4H-pyrazolo[3,4-b]pyridin-4-one] | 99.4 | 100 | < 50 |
| CCc1nn(CCN2CCN(C)CC2)c2[nH]c(-c3ccccc3Cl)c(O)c(=O)c12 [Example 165, 6-(2-Chlorophenyl)-3-ethyl-5-hydroxy-1-(2-(4-methylpiperazin-1-yl)ethyl)-1H-pyrazolo[3,4-b]pyridine-4(7H)-one] | 99.9 | 80.1 | < 50 |
| CCc1nn(C)c2[nH]c(-c3cnc(-c4ccc(F)cc4F)s3)c(O)c(=O)c12 [Example 187, 6-(2-(2,4-Difluorophenyl)thiazol-5-yl)-3-ethyl-5-hydroxy-1-methyl-1H-pyrazolo[3,4-b]pyridin-4(7H)-one] | 77 | 77.8 | 100 to 150 |
| Cc1nn(CC(F)(F)F)c2[nH]c(-c3ccccc3Cl)c(O)c(=O)c12 [Example 27, 6-(2-Chlorophenyl)-5-hydroxy-3-methyl-1-(2,2,2-trifluoroethyl)-1,7-dihydro-4H-pyrazolo[3,4-b]pyridin-4-one] | 98.2 | 100 | 100 to 150 |
| CCc1nn(CCN2CCN(CC)CC2)c2[nH]c(-c3ccccc3Cl)c(O)c(=O)c12 [Example 173, 6-(2-Chlorophenyl)-3-ethyl-1-(2-(4-ethylpiperazin-1-yl)ethyl)-5-hydroxy-1H-pyrazolo[3,4-b]pyridin-4(7H)-one] | 76.1 | 69.7 | > 150 |
| CS(=O)(=O)N1CCC(c2nn(C3CC3)c3[nH]c(-c4c(F)cccc4F)c(O)c(=O)c23)CC1 [Example 186, 1-Cyclopropyl-6-(2,6-difluorophenyl)-5-hydroxy-3-(1-(methylsulfonyl)piperidin-4-yl)-1H-pyrazolo[3,4-b]pyridin-4(7H)-one] | 71.9 | 81.2 | > 150 |
| Cn1nc2[nH]c(-c3ccccc3Cl)c(O)c(=O)c2c1Cc1ccccc1F [Example 57, 6-(2-Chlorophenyl)-3-(2-fluorobenzyl)-5-hydroxy-2-methyl-2,7-dihydro-4H-pyrazolo[3,4-b]pyridin-4-one] | 21.9 | 13.5 | – |
| Cc1cc2c(=O)c(O)c(-c3ccccc3Cl)[nH]c2s1 [Example 60, 6-(2-Chlorophenyl)-5-hydroxy-2-methylthieno[2,3-b]pyridin-4(7H)-one] | 77 | 100 | > 150 |
| CCn1ncc2c(=O)c(O)c(-c3c(F)cccc3F)[nH]c21 [Example 105, 6-(2,6-Difluorophenyl)-1-ethyl-5-hydroxy-1,7-dihydro-4H-pyrazolo[3,4-b]pyridin-4-one] | 99.1 | 100 | > 150 |
